From US9656955B2, “Pyrrolidine derivatives, pharmaceutical compositions containing them, and their use in therapy” (AbbVie Deutschland GmbH & Co. KG, priority 2013, dated 2017)

Target: human GlyT1c transporter (Homo sapiens (Human), UniProt P48067)
Experiment: Radioligand binding assays using recombinant CHO cell membranes expressing human GlyT1
Settings: not given

Chain of human GlyT1c transporter (P48067 whole entry): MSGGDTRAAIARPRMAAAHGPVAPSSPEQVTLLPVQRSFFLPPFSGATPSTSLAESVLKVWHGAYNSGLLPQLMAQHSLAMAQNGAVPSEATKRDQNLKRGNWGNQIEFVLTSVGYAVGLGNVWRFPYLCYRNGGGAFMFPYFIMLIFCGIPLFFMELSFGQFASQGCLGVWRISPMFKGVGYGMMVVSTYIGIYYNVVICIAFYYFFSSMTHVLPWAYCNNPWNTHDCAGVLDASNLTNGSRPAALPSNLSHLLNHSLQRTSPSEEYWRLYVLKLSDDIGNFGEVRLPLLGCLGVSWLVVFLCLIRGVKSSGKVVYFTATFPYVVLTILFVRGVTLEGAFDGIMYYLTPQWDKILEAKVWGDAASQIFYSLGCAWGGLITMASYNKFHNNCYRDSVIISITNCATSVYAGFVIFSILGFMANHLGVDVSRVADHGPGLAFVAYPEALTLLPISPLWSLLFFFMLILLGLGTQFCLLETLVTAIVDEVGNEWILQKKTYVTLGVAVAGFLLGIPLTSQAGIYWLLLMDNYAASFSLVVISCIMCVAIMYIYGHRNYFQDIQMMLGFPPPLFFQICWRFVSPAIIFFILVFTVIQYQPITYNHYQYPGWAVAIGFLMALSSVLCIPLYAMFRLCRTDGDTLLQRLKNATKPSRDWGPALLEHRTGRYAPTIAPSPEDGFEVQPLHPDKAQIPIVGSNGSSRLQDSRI

| SMILES | Ki |
| --- | --- |
| Cn1cnc(S(=O)(=O)N2C[C@@H](C(=O)c3ccc(Cl)c(F)c3)[C@H](c3ccc(F)cc3)C2)c1 (relative stereo) [Example 319, (4-Chloro-3-fluorophenyl){trans-4-(4-fluorophenyl)-1-[(1-methyl-1H-imidazol-4-yl)sulfonyl]pyrrolidin-3-yl}methanone] | ≤ 0.1 µM |
| Cn1cnc(S(=O)(=O)N2C[C@@H](Nc3cc(C(F)(F)F)ncn3)[C@H](C3CCCO3)C2)c1 (relative stereo) [Example 853, N-[Trans-1-[(1-methyl-1H-imidazol-4-yl)sulfonyl]-4-(tetrahydrofuran-2-yl)pyrrolidin-3-yl]-6-(trifluoromethyl)pyrimidin-4-amine] | ≤ 1 µM |

Same assay, conditions: radioligand binding, human GlyT1c transporter-expressing CHO cell membranes

| SMILES | Ki |
| --- | --- |
| Cn1cnc(S(=O)(=O)N2C[C@H](Nc3cc(-c4ccc(F)cc4)ncn3)[C@@H](c3ccc(F)cc3)C2)c1 [Example 728, 6-(4-fluorophenyl)-N-{(3R,4S)-4-(4-fluorophenyl)-1-[(1-methyl-1H-imidazol-4-yl)sulfonyl]pyrrolidin-3-yl}pyrimidin-4-amine] | ≤ 0.01 µM |
| COC(=O)c1ccc(S(=O)(=O)N2CC(Nc3ccc(F)c(F)c3)C(c3ccccc3)C2)n1C (stereo not drawn) [Example 504, methyl 5-({3-[(3,4-difluorophenyl)amino]-4-phenylpyrrolidin-1-yl}sulfonyl)-1-methyl-1H-pyrrole-2-carboxylate] | ≤ 10 µM |
| CC(C)COC(=O)N[C@H]1CN(S(=O)(=O)c2cn(C)cn2)C[C@@H]1c1ccccc1 [Example 543, 2-methylpropyl {(3R,4S)-1-[(1-methyl-1H-imidazol-4-yl)sulfonyl]-4-phenylpyrrolidin-3-yl}carbamate] | ≤ 10 µM |
| Cn1cnc(S(=O)(=O)N2C[C@H](Nc3cccc(C4CCNCC4)c3)[C@@H](c3ccccc3)C2)c1 [Example 777, (3R,4S)-1-[(1-methyl-1H-imidazol-4-yl)sulfonyl]-4-phenyl-N-[3-(piperidin-4-yl)phenyl]pyrrolidin-3-amine] | ≥ 10 µM |
| CC(C)N1CCC(CN[C@H]2CN(S(=O)(=O)c3cn(C)cn3)C[C@@H]2c2ccccc2)CC1 [Example 459, (3R,4S)-1-[(1-methyl-1H-imidazol-4-yl)sulfonyl]-4-phenyl-N-{[1-(propan-2-yl)piperidin-4-yl]methyl}pyrrolidin-3-amine] | ≤ 10 µM |
| Cn1cnc(S(=O)(=O)N2C[C@H](NCc3cccc4cncn34)[C@@H](c3ccccc3)C2)c1 [Example 560, (3R,4S)—N-(imidazo[1,5-a]pyridin-5-ylmethyl)-1-[(1-methyl-1H-imidazol-4-yl)sulfonyl]-4-phenylpyrrolidin-3-amine] | ≥ 10 µM |
| Cn1cnc(S(=O)(=O)N2C[C@H](Nc3cccc(C#N)c3)[C@@H](c3ccc(F)cc3)C2)c1 [Example 380, 3-({(3R,4S)-4-(4-fluorophenyl)-1-[(1-methyl-1H-imidazol-4-yl)sulfonyl]pyrrolidin-3-yl}-amino)benzonitrile] | ≤ 0.1 µM |
| Cn1cnc(S(=O)(=O)N2C[C@H](NC(=O)c3cnc(C(F)(F)F)cn3)[C@@H](c3ccccc3)C2)c1 [Example 414, N-{(3R,4S)-1-[(1-methyl-1H-imidazol-4-yl)sulfonyl]-4-phenylpyrrolidin-3-yl}-5-(trifluoromethyl)pyrazine-2-carboxamide] | ≤ 10 µM |
| Cn1cnc(S(=O)(=O)N2C[C@H](Nc3ccc(F)c(Cl)c3)[C@@H](c3ccccc3)C2)c1 [Example 417, (3R,4S)—N-(3-chloro-4-fluorophenyl)-1-[(1-methyl-1H-imidazol-4-yl)sulfonyl]-4-phenylpyrrolidin-3-amine] | ≤ 0.01 µM |
| Cc1nn(C)c(C)c1S(=O)(=O)N1CC(Nc2ccc(F)c(F)c2)C(c2ccccc2)C1 (stereo not drawn) [Example 508, N-(3,4-difluorophenyl)-4-phenyl-1-[(1,3,5-trimethyl-1H-pyrazol-4-yl)sulfonyl]pyrrolidin-3-amine] | ≤ 10 µM |
| Cn1cnc(S(=O)(=O)N2C[C@H](NCc3ccc(C(F)(F)F)cc3)[C@@H](c3ccccc3)C2)c1 [Example 398, (3R,4S)-1-[(1-methyl-1H-imidazol-4-yl)sulfonyl]-4-phenyl-N-[4-(trifluoromethyl)benzyl]pyrrolidin-3-amine] | ≤ 0.01 µM |
| CCCOc1cc(N[C@H]2CN(S(=O)(=O)c3cn(C)cn3)C[C@@H]2c2ccccc2)ncn1 [Example 622, N-{(3R,4S)-1-[(1-methyl-1H-imidazol-4-yl)sulfonyl]-4-phenylpyrrolidin-3-yl}-6-propoxypyrimidin-4-amine] | ≤ 0.1 µM |
| Cn1cnc(S(=O)(=O)N2C[C@H](Nc3ccnc(N4CCOCC4)n3)[C@@H](c3ccccc3)C2)c1 [Example 420, N-{(3R,4S)-1-[(1-methyl-1H-imidazol-4-yl)sulfonyl]-4-phenylpyrrolidin-3-yl}-2-(morpholin-4-yl)pyrimidin-4-amine] | ≤ 10 µM |
